Source: article doi:10.1101/2021.09.30.462449v1 (biorxiv, 2021)

How the values were obtained:
Assay in all cases: biochemical
Conditions in all cases: read-out: % inhibition mean (Lanthascreen)
NEK8 = NEK8 (Homo sapiens, UniProt Q86SG6)
ABL1 H396P = ABL1 H396P (Homo sapiens, UniProt P00519, H396P)
GRK1 = GRK1 (Homo sapiens, UniProt Q15835)
MAP3K3 (MEKK3) = MAP3K3 (MEKK3) (Homo sapiens, UniProt Q99759)
MET D1228H = MET D1228H (Homo sapiens, UniProt P08581, D1228H)
BMPR1A (ALK3) = BMPR1A (ALK3) (Homo sapiens, UniProt P36894)
CAMK2G (CaMKII gamma) = CAMK2G (CaMKII gamma) (Homo sapiens, UniProt Q13555)
NLK = NLK (Homo sapiens, UniProt Q9UBE8)
NLK, sequence (Q9UBE8 whole entry): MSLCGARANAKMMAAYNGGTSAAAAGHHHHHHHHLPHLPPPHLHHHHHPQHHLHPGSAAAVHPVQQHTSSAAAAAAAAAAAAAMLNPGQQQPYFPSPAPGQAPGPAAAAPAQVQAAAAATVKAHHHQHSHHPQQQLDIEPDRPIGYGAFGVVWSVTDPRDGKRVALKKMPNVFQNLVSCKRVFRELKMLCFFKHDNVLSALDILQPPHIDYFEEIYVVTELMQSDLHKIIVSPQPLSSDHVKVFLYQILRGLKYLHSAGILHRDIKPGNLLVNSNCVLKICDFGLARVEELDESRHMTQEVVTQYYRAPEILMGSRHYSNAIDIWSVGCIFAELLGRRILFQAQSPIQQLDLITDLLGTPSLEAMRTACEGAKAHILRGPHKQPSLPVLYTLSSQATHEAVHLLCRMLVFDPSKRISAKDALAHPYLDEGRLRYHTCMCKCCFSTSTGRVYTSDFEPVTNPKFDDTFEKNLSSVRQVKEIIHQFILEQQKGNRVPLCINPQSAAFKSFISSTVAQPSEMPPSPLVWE

CDK2/cyclin E1 = CDK2/cyclin E1 (Homo sapiens, UniProt P24941)
CDK8/cyclin C = CDK8/cyclin C (Homo sapiens, UniProt P49336)
CDK8/cyclin C, sequence (P49336 whole entry): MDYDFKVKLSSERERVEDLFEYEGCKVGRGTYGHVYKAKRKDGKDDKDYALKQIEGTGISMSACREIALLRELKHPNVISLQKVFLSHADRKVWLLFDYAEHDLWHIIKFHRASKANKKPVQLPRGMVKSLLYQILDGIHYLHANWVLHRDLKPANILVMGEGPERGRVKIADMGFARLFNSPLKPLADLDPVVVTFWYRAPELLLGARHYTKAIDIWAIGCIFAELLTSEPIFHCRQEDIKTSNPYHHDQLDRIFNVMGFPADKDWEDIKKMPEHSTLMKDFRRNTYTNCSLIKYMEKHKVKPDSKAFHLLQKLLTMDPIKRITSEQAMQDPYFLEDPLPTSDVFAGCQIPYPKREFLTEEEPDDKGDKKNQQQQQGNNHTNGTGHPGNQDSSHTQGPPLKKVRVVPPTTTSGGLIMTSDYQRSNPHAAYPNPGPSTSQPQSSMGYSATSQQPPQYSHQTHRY
CDK8/cyclin C, sequence (P24863 whole entry partner): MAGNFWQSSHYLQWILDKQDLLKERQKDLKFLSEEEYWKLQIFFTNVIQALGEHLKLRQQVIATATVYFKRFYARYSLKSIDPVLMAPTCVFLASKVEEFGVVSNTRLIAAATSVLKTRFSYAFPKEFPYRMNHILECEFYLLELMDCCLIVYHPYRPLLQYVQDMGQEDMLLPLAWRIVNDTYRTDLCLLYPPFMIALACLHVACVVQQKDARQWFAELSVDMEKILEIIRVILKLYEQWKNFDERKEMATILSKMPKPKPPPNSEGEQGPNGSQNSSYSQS

ACVRL1 (ALK1) = ACVRL1 (ALK1) (Homo sapiens, UniProt P37023)
ACVRL1 (ALK1), sequence (P37023 whole entry): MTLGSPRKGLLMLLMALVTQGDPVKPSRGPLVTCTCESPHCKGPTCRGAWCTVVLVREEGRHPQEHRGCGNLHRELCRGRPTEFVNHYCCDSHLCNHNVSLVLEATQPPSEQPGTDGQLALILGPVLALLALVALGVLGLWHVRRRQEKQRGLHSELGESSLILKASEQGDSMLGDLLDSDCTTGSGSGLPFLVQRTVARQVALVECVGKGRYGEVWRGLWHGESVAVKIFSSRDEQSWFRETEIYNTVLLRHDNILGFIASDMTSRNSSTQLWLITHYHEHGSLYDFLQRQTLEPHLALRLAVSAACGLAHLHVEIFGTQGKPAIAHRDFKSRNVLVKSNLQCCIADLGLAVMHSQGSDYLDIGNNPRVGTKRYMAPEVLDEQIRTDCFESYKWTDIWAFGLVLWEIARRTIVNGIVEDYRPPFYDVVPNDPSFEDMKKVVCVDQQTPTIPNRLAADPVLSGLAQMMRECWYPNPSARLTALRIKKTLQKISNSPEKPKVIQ

RET V804M = RET V804M (Homo sapiens, UniProt P07949, V804M)
CAMKK1 (CAMKKA) = CAMKK1 (CAMKKA) (Homo sapiens, UniProt Q8N5S9)
CAMKK1 (CAMKKA), sequence (Q8N5S9 whole entry): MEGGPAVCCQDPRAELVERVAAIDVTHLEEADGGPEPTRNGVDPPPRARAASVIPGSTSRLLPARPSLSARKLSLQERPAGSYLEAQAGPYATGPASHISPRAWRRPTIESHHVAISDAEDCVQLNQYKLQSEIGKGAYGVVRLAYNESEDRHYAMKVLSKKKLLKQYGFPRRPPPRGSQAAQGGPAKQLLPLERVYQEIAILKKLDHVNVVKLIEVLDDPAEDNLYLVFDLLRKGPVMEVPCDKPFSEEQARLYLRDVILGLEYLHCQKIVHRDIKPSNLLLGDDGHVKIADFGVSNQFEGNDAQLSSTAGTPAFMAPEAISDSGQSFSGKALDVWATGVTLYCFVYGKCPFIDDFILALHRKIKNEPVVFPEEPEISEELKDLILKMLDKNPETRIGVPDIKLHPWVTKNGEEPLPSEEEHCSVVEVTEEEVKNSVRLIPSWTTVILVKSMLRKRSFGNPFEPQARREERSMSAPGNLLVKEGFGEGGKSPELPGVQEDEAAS

ABL1 Q252H = ABL1 Q252H (Homo sapiens, UniProt P00519, Q252H)
MAP3K5 (ASK1) = MAP3K5 (ASK1) (Homo sapiens, UniProt Q99683)
MAP3K5 (ASK1), sequence (Q99683 whole entry): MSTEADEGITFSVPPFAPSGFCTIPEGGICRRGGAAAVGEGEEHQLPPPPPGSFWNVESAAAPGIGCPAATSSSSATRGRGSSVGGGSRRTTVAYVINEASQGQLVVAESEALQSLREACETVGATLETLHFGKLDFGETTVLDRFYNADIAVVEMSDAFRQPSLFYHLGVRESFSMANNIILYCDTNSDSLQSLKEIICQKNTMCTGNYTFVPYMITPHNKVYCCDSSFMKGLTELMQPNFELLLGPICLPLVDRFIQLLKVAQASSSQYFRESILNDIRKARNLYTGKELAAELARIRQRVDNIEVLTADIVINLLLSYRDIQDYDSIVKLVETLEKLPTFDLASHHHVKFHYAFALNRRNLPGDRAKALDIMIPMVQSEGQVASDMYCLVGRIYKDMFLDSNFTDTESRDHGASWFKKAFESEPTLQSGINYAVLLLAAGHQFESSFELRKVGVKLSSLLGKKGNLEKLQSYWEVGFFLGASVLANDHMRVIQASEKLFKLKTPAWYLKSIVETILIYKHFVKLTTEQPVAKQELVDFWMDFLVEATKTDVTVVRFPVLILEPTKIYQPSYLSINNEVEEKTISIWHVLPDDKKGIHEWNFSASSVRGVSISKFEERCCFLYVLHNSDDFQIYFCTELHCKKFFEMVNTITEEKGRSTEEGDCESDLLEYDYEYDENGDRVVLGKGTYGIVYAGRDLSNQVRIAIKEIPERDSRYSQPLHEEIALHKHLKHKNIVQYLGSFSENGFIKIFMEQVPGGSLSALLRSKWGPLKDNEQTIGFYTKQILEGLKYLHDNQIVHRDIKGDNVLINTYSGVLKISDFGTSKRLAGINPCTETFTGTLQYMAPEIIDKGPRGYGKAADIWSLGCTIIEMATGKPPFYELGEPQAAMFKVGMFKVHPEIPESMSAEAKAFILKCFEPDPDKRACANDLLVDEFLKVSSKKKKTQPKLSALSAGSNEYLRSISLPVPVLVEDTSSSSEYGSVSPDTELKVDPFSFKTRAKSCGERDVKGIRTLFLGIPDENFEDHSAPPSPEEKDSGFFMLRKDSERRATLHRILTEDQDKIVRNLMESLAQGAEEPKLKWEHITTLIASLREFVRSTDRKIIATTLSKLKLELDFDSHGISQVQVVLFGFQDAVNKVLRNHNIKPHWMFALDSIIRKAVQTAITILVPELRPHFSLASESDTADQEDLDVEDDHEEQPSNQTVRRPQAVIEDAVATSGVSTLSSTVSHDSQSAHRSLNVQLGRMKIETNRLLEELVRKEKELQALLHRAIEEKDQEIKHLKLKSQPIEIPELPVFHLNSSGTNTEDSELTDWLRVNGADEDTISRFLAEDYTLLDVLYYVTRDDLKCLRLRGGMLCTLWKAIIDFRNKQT

TESK2 = TESK2 (Homo sapiens, UniProt Q96S53)
AMPK (A2/B2/G1) = AMPK (A2/B2/G1) (Homo sapiens, UniProt P54646)
ULK3 = ULK3 (Homo sapiens, UniProt Q6PHR2)
DDR1 = DDR1 (Homo sapiens, UniProt Q08345)
AMPK (A1/B2/G1) = AMPK (A1/B2/G1) (Homo sapiens, UniProt Q13131)
EPHA3 = EPHA3 (Homo sapiens, UniProt P29320)
ACVR1 (ALK2) R206H = ACVR1 (ALK2) R206H (Homo sapiens, UniProt Q04771, R206H)
CDK14 (PFTK1)/cyclin Y = CDK14 (PFTK1)/cyclin Y (Homo sapiens, UniProt O94921)
VRK2 = VRK2 (Homo sapiens, UniProt Q86Y07)
PRKACG (PRKAC gamma) = PRKACG (PRKAC gamma) (Homo sapiens, UniProt P22612)
BMPR1B (ALK6) = BMPR1B (ALK6) (Homo sapiens, UniProt O00238)
TAOK1 = TAOK1 (Homo sapiens, UniProt Q7L7X3)
DMPK = DMPK (Homo sapiens, UniProt Q09013)

GRK1, sequence (Q15835 whole entry): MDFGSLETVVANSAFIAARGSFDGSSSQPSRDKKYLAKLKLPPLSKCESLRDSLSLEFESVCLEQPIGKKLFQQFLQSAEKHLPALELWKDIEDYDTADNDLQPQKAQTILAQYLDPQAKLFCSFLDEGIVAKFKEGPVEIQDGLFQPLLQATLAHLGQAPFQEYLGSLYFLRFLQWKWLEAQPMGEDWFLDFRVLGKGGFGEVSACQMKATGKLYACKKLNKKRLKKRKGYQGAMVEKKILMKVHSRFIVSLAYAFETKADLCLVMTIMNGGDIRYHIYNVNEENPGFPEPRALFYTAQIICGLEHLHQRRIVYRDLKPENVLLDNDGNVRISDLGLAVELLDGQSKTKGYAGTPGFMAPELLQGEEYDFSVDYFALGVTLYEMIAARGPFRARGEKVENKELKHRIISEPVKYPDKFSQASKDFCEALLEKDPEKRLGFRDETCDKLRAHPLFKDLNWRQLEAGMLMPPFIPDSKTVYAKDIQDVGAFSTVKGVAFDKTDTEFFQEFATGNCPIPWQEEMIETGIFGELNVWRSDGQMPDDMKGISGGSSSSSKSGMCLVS
MAP3K3 (MEKK3), sequence (Q99759 whole entry): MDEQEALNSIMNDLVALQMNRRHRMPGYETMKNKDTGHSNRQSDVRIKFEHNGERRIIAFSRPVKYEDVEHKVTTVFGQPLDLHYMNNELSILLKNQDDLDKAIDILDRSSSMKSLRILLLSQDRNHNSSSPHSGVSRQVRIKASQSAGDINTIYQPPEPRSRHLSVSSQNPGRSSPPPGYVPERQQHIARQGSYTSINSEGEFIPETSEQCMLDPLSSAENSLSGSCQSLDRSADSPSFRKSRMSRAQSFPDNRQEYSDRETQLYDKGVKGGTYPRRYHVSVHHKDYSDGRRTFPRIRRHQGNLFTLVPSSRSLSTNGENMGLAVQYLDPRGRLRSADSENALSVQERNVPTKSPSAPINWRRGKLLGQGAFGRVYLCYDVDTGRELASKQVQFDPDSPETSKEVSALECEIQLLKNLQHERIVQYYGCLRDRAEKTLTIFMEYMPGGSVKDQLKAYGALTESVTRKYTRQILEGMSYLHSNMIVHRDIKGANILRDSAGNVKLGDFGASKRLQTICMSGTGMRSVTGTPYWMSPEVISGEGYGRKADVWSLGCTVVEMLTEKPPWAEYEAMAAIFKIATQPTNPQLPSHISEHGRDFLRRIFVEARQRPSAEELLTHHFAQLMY

COc1ccc2nc3cc(Cl)ccc3c(Nc3cc(CN4CCCC4)c(O)c(CN4CCCC4)c3)c2n1 [Pyronaridine, 4-[(7-Chloro-2-methoxybenzo[b][1,5]naphthyridin-10-yl)amino]-2,6-bis(1-pyrrolidinylmethyl)phenol phosphate (1:4)]
inhibition at 1 µM (NEK8): 0%
inhibition at 1 µM (ABL1 H396P): 7%
inhibition at 1 µM (GRK1): 1%
inhibition at 1 µM (MAP3K3 (MEKK3)): -3%
inhibition at 1 µM (MET D1228H): 3%
inhibition at 1 µM (BMPR1A (ALK3)): 10%
inhibition at 1 µM (CAMK2G (CaMKII gamma)): -1%
inhibition at 1 µM (NLK): 8%
inhibition at 1 µM (CDK2/cyclin E1): 0%
inhibition at 1 µM (CDK8/cyclin C): 3%
inhibition at 1 µM (ACVRL1 (ALK1)): 12%
inhibition at 1 µM (RET V804M): -1%
inhibition at 1 µM (CAMKK1 (CAMKKA)): 15%
inhibition at 1 µM (ABL1 Q252H): -10%
inhibition at 1 µM (MAP3K5 (ASK1)): -11%
inhibition at 1 µM (TESK2): -3%
inhibition at 1 µM (AMPK (A2/B2/G1)): 6%
inhibition at 1 µM (ULK3): 8%
inhibition at 1 µM (DDR1): -2%
inhibition at 1 µM (AMPK (A1/B2/G1)): -2%
inhibition at 1 µM (EPHA3): 11%
inhibition at 1 µM (ACVR1 (ALK2) R206H): 2%
inhibition at 1 µM (CDK14 (PFTK1)/cyclin Y): 14%
inhibition at 1 µM (VRK2): -4%
inhibition at 1 µM (PRKACG (PRKAC gamma)): 2%
inhibition at 1 µM (BMPR1B (ALK6)): -3%
inhibition at 1 µM (TAOK1): -4%
inhibition at 1 µM (DMPK): 4%
